Data taken from EP0286578A1, “4,15-Disubstituted 4-androsten-3,17-diones, and process for their preparation” (SCHERING AKTIENGESELLSCHAFT, priority 1987, dated 1988).

Target: T1, Aromatase (Rattus norvegicus, UniProt P22443)
T1 construct: Invantile weibliche Ratten reagieren auf PMSG (Pregnant Mare's Serum Gonadotropin)-Behandlung mit einheitlich erhöhter Steroidsynthese; from tissue; host or cells: living infantile female rats (whole animal; serum estradiol read-out)
T1 sequence (P22443 1-508): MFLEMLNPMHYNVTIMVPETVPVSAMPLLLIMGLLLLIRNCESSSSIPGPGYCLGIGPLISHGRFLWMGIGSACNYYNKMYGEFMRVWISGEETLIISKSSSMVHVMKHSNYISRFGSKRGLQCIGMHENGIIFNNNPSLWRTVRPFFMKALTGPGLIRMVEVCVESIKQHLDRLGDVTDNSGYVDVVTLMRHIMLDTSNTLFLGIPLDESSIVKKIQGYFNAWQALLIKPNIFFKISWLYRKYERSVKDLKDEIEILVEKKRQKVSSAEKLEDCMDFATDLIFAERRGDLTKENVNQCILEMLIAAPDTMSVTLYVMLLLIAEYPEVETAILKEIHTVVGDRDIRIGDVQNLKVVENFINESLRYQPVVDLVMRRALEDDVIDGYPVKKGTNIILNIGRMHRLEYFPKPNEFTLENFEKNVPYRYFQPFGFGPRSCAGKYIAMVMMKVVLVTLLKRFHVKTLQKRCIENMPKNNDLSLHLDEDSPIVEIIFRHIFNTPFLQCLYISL
Test: PMSG test in infantile female rats (serum estradiol by radioimmunoassay)
Format: in vivo, Ratte
Details: for Konzentration im Serum Östradiol: infantile Ratten, PMSG-stimulated, 2 x 10 mg/Tier p.o., serum 24 h after last PMSG, mean ± SD, 10 animals per group

Structure (SMILES): CC[C@@H]1CC(=O)[C@@]2(C)CC[C@H]3[C@@H](CCC4=C(OC(C)=O)C(=O)CC[C@@]43C)[C@H]12 [C, 4-Acetoxy-15β-ethyl-4-androsten-3,17-dion]
- Konzentration im Serum Östradiol: 2,34 ± 0,46 nMol/l

Structure (SMILES): CC[C@@H]1CC(=O)[C@@]2(C)CC[C@H]3[C@@H](CCC4=C(O)C(=O)CC[C@@]43C)[C@H]12 [B, 15β-Ethyl-4-hydroxy-4-androsten-3,17-dion]
- Konzentration im Serum Östradiol: 2,83 ± 0,29 nMol/l

Structure (SMILES): C[C@]12CCC(=O)C(O)=C1CC[C@@H]1[C@@H]2CC[C@]2(C)C(=O)CC[C@@H]12 [A, 4-Hydroxy-4-androsten-3,17-dion]
- Wirksamkeit (PMSG test, oral application, dose range tested 2 x 10 mg, result in words): keine Wirksamkeit
- Konzentration im Serum Östradiol: 3,45 ± 0,18 nMol/l
